According to patent US7119102B2, “Substituted 3-amino-thieno[2,3-b]pyridine-2-carboxylic acid amide compounds and processes for preparing and their uses” (Boehringer Ingelheim Pharmaceuticals, Inc., priority 2003, dated 2006):

| SMILES | melting point |
| --- | --- |
| CCCc1cc(N2CCC(NCC(O)c3cnc4ccccc4c3)CC2)nc2sc(C(N)=O)c(N)c12 (centres unmarked) [Example 8, 3-Amino-6-[4-(2-hydroxy-2-quinolin-3-yl-ethylamino)-piperidin-1-yl]-4-propyl-thieno[2,3-b]pyridine-2-carboxylic acid amide] | 213 to 216 °C |
| NC(=O)c1sc2nc(N3CCC(NCC(O)c4cccnc4)CC3)cc(C(F)(F)F)c2c1N (centres unmarked) [Example 9, 3-Amino-6-[4-(2-hydroxy-2-pyridin-3-yl-ethylamino)-piperidin-1-yl]-4-trifluoromethyl-thieno[2,3-b]pyridine-2-carboxylic acid amide] | 179 to 181 °C |
| NC(=O)c1sc2nc(N3CCC(NCC(O)c4ccc5ccccc5n4)CC3)cc(C(F)(F)F)c2c1N (centres unmarked) [Example 10, 3-Amino-6-[4-(2-hydroxy-2-quinolin-2-yl-ethylamino)-piperidin-1-yl]-4-trifluoromethyl-thieno[2,3-b]pyridine-2-carboxylic acid amide] | 198 to 201 °C |
| CCCc1cc(N2CCC(NCC(O)c3cc4ccccc4cn3)CC2)nc2sc(C(N)=O)c(N)c12 (centres unmarked) [Example 11, 3-Amino-6-[4-(2-hydroxy-2-isoquinolin-3-yl-ethylamino)-piperidin-1-yl]-4-propyl-thieno[2,3-b]pyridine-2-carboxylic acid amide] | 213 to 215 °C (dec.) |
| NC(=O)c1sc2nc(N3CCC(NC[C@@H](O)c4ccccn4)CC3)cc(C(F)(F)F)c2c1N [Example 22, 3-Amino-6-[4-((R)-2-hydroxy-2-pyridin-2-yl-ethylamino)-piperidin-1-yl]-4-trifluoromethyl-thieno[2,3-b]pyridine-2-carboxylic acid amide] | 165 to 167 °C |
